{"source": "paper PMC6521145", "about": "(Viruses, 2019)", "key": {"ZIKV (H/PAN and PRV)": {"test_system": "ZIKV (H/PAN and PRV)", "assay": "Plaque assay, ZIKV titer from infected Vero cells", "type": "cell-based, Zika virus", "conditions": "for rescue of ZIKV replication from MTX treatment: 50 µM co-treatment with 5 µM MTX, H/PAN and PRV MOI 0.2, Vero cells; for rescue of ZIKV replication from MTX treatment / decrease in ZIKV titer: 48 h PI; for rescue of ZIKV replication during MTX treatment: 5 µM MTX with GAT medium or 0.67 mM glycine, 37.5 µM adenosine, 41.3 µM thymidine, 48 h"}, "Vero cells [1]": {"test_system": "Vero cells", "conditions": "for rescue of cell viability during MTX treatment (CTF): 5 µM MTX with 0.67 mM glycine, 37.5 µM adenosine or 41.3 µM thymidine, uninfected Vero cells"}, "Vero cells [2]": {"test_system": "Vero cells", "conditions": "for rescue of cell viability during MTX treatment (CTG): 5 µM MTX with GAT medium or 0.67 mM glycine, 37.5 µM adenosine, 41.3 µM thymidine"}, "ZIKV (H/PAN) [3]": {"test_system": "ZIKV (H/PAN)", "assay": "Plaque assay, ZIKV titer from infected hNSCs", "type": "cell-based, Zika virus"}, "hNSCs": {"test_system": "hNSCs", "conditions": "hNSCs"}, "ZIKV": {"test_system": "ZIKV", "conditions": "human brain microvascular endothelial cells; read-out: inhibitory concentration 50 (IC50) against ZIKV; cited from earlier work"}, "ZIKV (H/PAN) [4]": {"test_system": "ZIKV (H/PAN)", "assay": "Immunofluorescence imaging of ZIKV envelope protein in infected hNSCs", "conditions": "Zika virus, read-out: IC50 (µM) Values of MTX, Immunofluorescence"}, "ZIKV (H/PAN) [5]": {"test_system": "ZIKV (H/PAN)", "assay": "Immunofluorescence imaging of ZIKV envelope protein in infected Vero cells"}, "[6]": {"test_system": "human brain microvascular endothelial cells", "conditions": "read-out: host cytotoxicity (CC50); cited from earlier work"}, "[7]": {"conditions": "human, hNSCs"}, "[8]": {"conditions": "human"}, "[9]": {"conditions": "GAT medium or 37.5 µM adenosine without MTX"}}, "note": "Where two headings read alike, the source gives them in different places.", "data": [{"smiles": "Nc1nc(=O)c2nc(CNc3ccc(C(=O)N[C@@H](CCC(=O)O)C(=O)O)cc3)cnc2[nH]1", "note": "[folic acid]", "values": [{"measurement": "rescue of ZIKV replication from MTX treatment", "setting": "ZIKV (H/PAN and PRV)", "value": "could not rescue"}]}, {"smiles": "NCC(=O)O", "note": "[glycine]", "values": [{"measurement": "rescue of cell viability during MTX treatment (CTF)", "setting": "Vero cells [1]", "value": "could not rescue"}, {"measurement": "rescue of cell viability during MTX treatment (CTG)", "setting": "Vero cells [2]; uninfected Vero cells", "value": "could not rescue"}]}, {"smiles": "Nc1ncnc2c1ncn2[C@@H]1O[C@H](CO)[C@@H](O)[C@H]1O", "note": "[adenosine]", "values": [{"measurement": "rescue of cell viability during MTX treatment (CTF)", "setting": "Vero cells [1]", "value": "could"}, {"measurement": "viability of Vero cells, substance alone (CTF)", "setting": "Vero cells [1]; [9]", "value": "did not alter"}, {"measurement": "rescue of cell viability during MTX treatment (CTG)", "setting": "Vero cells [2]; uninfected Vero cells", "value": "could"}, {"measurement": "viability of Vero cells, substance alone (CTG)", "setting": "Vero cells [2]; [9]", "value": "did not alter"}, {"measurement": "rescue of ZIKV replication during MTX treatment", "setting": "ZIKV (H/PAN and PRV); H/PAN MOI 0.2, Vero cells", "value": "rescued"}]}, {"smiles": "Cc1cn([C@H]2C[C@H](O)[C@@H](CO)O2)c(=O)[nH]c1=O", "note": "[thymidine]", "values": [{"measurement": "rescue of cell viability during MTX treatment (CTF)", "setting": "Vero cells [1]", "value": "could not rescue"}, {"measurement": "rescue of cell viability during MTX treatment (CTG)", "setting": "Vero cells [2]; uninfected Vero cells", "value": "could not rescue"}, {"measurement": "rescue of ZIKV replication during MTX treatment", "setting": "ZIKV (H/PAN and PRV); H/PAN MOI 0.2, Vero cells", "value": "could not rescue"}]}, {"smiles": "Nc1nc2c(c(=O)[nH]1)N(C=O)C(CNc1ccc(C(=O)N[C@@H](CCC(=O)O)C(=O)O)cc1)CN2", "note": "(stereo partly shown) [leucovorin]", "values": [{"measurement": "rescue of ZIKV replication during MTX treatment", "setting": "ZIKV (H/PAN) [3]; 50 µM with 5 µM MTX, H/PAN MOI 0.1, hNSCs", "value": "same rescue effect"}, {"measurement": "cell viability, substance alone (CTG)", "setting": "Vero cells [2]; 50 µM leucovorin vs water vehicle, Vero cells", "value": "No significant difference"}, {"measurement": "rescue of cell viability after MTX treatment (CTG)", "setting": "Vero cells [2]; 50 µM with 5 µM MTX, uninfected Vero cells", "value": "could rescue"}, {"measurement": "cell viability, substance alone (CTG)", "setting": "hNSCs; 50 µM leucovorin vs water vehicle", "value": "No significant difference"}, {"measurement": "rescue of cell viability during MTX treatment (CTG)", "setting": "hNSCs; 50 µM with 5 µM MTX", "value": "same rescue effect"}, {"measurement": "rescue of ZIKV replication from MTX treatment", "setting": "ZIKV (H/PAN and PRV)", "value": "rescued"}]}, {"smiles": "CN(Cc1cnc2nc(N)nc(N)c2n1)c1ccc(C(=O)N[C@@H](CCC(=O)O)C(=O)O)cc1", "note": "[MTX, methotrexate]", "values": [{"measurement": "IC50", "setting": "ZIKV", "value": 280, "unit": "nM"}, {"measurement": "IC50", "setting": "ZIKV (H/PAN) [4]", "value": 0.334, "unit": "µM"}, {"measurement": "ZIKV replication in infected hNSCs", "setting": "ZIKV (H/PAN) [3]; 5 μM MTX, hNSCs", "value": "reduced ZIKV replication"}, {"measurement": "ZIKV envelope protein synthesis", "setting": "ZIKV (H/PAN) [5]; 5 µM MTX, H/PAN MOI 0.2, Vero cells, 48 h PI", "value": "reduced"}, {"measurement": "IC50", "setting": "ZIKV (H/PAN) [5]; Zika virus, Vero, read-out: IC50 (µM) Values of MTX, Immunofluorescence", "value": 0.245, "unit": "µM"}, {"measurement": "CC50", "setting": "[6]", "value": "> 10000", "unit": "nM"}, {"measurement": "CC50", "setting": "[7]", "value": "> 100000", "unit": "nM"}, {"measurement": "CC50", "setting": "[8]", "value": 16.3, "unit": "nM"}, {"measurement": "decrease in ZIKV titer", "setting": "ZIKV (H/PAN and PRV); 5 µM MTX, H/PAN and PRV both MOI 0.2, Vero cells", "value": "approximately 10 fold"}, {"measurement": "ZIKV replication at 96 h PI compared to DMSO control", "setting": "ZIKV (H/PAN and PRV); 5 µM MTX, Vero cells, 96 h PI", "value": "resumed"}, {"measurement": "decrease in ZIKV titer", "setting": "ZIKV (H/PAN and PRV); 6.25 µM MTX, H/PAN MOI 0.2, Vero cells", "value": "approximately 10 fold"}]}]}
